Test results as given in US12660819B2, “Herbicidal derivatives” (SYNGENTA CROP PROTECTION AG, priority 2020, dated 2026).

Legend:
Assay type in all cases: in vivo
[1] = tested on: Abutilon theophrasti (ABUTH); assay: Pre-emergence Test (glasshouse, percentage damage to the plant); conditions: 1000 g/ha unless otherwise stated, five-point scale
Zea mays (ZEAMX) [2] = assay: as above; conditions: 1000 g/ha unless otherwise stated, five-point scale
[3] = tested on: Amaranthus retoflexus (AMARE); assay: as above; conditions: 1000 g/ha unless otherwise stated, five-point scale
[4] = tested on: Echinochloa crus-galli (ECHCG); assay: as above; conditions: 1000 g/ha unless otherwise stated, five-point scale
Setaria faberi (SETFA) [5] = assay: as above; conditions: 1000 g/ha unless otherwise stated, five-point scale
[6] = tested on: Ipomoea hederacea (IPOHE); assay: as above; conditions: 1000 g/ha unless otherwise stated, five-point scale
[7] = tested on: Abutilon theophrasti (ABUTH); assay: Post-emergence Test (glasshouse, percentage damage to the plant); conditions: post-emergence spray, 1000 g/ha unless otherwise stated, evaluated after 13 days
How it was run: (§1)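 Percentage damage to the plant, assessed 13 days after application and scored 1–5 in 20% bands. Pots sown in standard soil received compound at 1000 g/ha unless otherwise stated, sprayed under 24/16 °C, 14 h light, 65% humidity.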

[8] = tested on: Echinochloa crus-galli (ECHCG); assay: as above; conditions: post-emergence spray, 1000 g/ha unless otherwise stated, evaluated after 13 days
How it was run: as §1

Setaria faberi (SETFA) [9] = assay: as above; conditions: post-emergence spray, 1000 g/ha unless otherwise stated, evaluated after 13 days
How it was run: (§2)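 Damage was rated 13 days after treatment and expressed on a five-point scale: 5=81-100%, 4=61-80%, 3=41-60%, 2=21-40%, 1=0-20%. Spray was applied at 1000 g/ha unless otherwise stated, from acetone/water (50:50) with 0.5% Tween 20, to sown pots.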

[10] = tested on: Amaranthus retoflexus (AMARE); assay: as above; conditions: post-emergence spray, 1000 g/ha unless otherwise stated, evaluated after 13 days
How it was run: as §1

Zea mays (ZEAMX) [11] = assay: as above; conditions: post-emergence spray, 1000 g/ha unless otherwise stated, evaluated after 13 days
How it was run: as §2

[12] = tested on: Ipomoea hederacea (IPOHE); assay: as above; conditions: post-emergence spray, 1000 g/ha unless otherwise stated, evaluated after 13 days
How it was run: as §2

Compound | percentage damage to the plant, ABUTH [1] | percentage damage to the plant, ZEAMX (Zea mays (ZEAMX) [2]) | percentage damage to the plant, AMARE [3] | percentage damage to the plant, ECHCG [4] | percentage damage to the plant, SETFA (Setaria faberi (SETFA) [5]) | percentage damage to the plant, IPOHE [6] | Post-emergence Test ABUTH, percentage damage to the plant (five-point scale) [7] | Post-emergence Test ECHCG, percentage damage to the plant (five-point scale) [8] | Post-emergence Test SETFA, percentage damage to the plant (five-point scale) (Setaria faberi (SETFA) [9]) | Post-emergence Test AMARE, percentage damage to the plant (five-point scale) [10] | Post-emergence Test ZEAMX, percentage damage to the plant (five-point scale) (Zea mays (ZEAMX) [11]) | Post-emergence Test IPOHE, percentage damage to the plant (five-point scale) [12]
CCn1c(C)c(-c2ccnnc2)c(=O)c(C(=O)O)c1-c1ccc(Cl)cc1 [Compound 180, 2-(4-chlorophenyl)-1-ethyl-6-methyl-4-oxo-5-pyridazin-4-yl-pyridine-3-carboxylic acid] | 0 | 0 | 0 | 0 | 0 | 0 | 0 | 0 | 0 | 0 | 0 | 2 (2=21-40%)
CCn1c(C)c(-c2cccc(Cl)c2)c(=O)c(C(=O)O)c1-c1ccc(Cl)c(Cl)n1 [Compound 149, 5-(3-chlorophenyl)-2-(5,6-dichloro-2-pyridyl)-1-ethyl-6-methyl-4-oxo-pyridine-3-carboxylic acid] | 0 | 0 | 0 | 0 | 0 | 0 | 1 (1=0-20%) | 0 | 0 | 1 (1=0-20%) | 1 (1=0-20%) | 2 (2=21-40%)
CCn1c(C)c(-c2cccc(OC)n2)c(=O)c(C(=O)O)c1-c1ccc(Cl)c(Cl)c1 [Compound 113, 2-(3,4-dichlorophenyl)-1-ethyl-5-(6-methoxy-2-pyridyl)-6-methyl-4-oxo-pyridine-3-carboxylic acid] | 3 (3=41-60%) | 2 (2=21-40%) | 1 (1=0-20%) | 1 (1=0-20%) | 4 (4=61-80%) | 2 (2=21-40%) | 4 (4=61-80%) | 3 (3=41-60%) | 4 (4=61-80%) | 3 (3=41-60%) | 2 (2=21-40%) | 2 (2=21-40%)
CCn1c(C)c(-c2ccc(OC(F)(F)F)cc2)c(=O)c(C(=O)O)c1-c1ccc(F)cc1F [Compound 136, 2-(2,4-difluorophenyl)-1-ethyl-6-methyl-4-oxo-5-[4-(trifluoromethoxy)phenyl]pyridine-3-carboxylic acid] | 3 (3=41-60%) | 1 (1=0-20%) | 2 (2=21-40%) | 3 (3=41-60%) | 5 (5=81-100%) | 2 (2=21-40%) | 3 (3=41-60%) | 3 (3=41-60%) | 4 (4=61-80%) | 3 (3=41-60%) | 1 (1=0-20%) | 2 (2=21-40%)
CCn1c(C)c(-c2ccc(C(C)=O)cc2)c(=O)c(C(=O)O)c1-c1ccc(Cl)c(Cl)c1 [Compound 90, 5-(4-acetylphenyl)-2-(3,4-dichlorophenyl)-1-ethyl-6-methyl-4-oxo-pyridine-3-carboxylic acid] | 1 (1=0-20%) | 1 (1=0-20%) | 1 (1=0-20%) | 1 (1=0-20%) | 3 (3=41-60%) | 1 (1=0-20%) | 1 (1=0-20%) | 1 (1=0-20%) | 2 (2=21-40%) | 1 (1=0-20%) | 1 (1=0-20%) | 2 (2=21-40%)
CCn1c(C)c(-c2ccc(C(F)F)cc2)c(=O)c(C(=O)O)c1-c1ccc(Cl)c(Cl)c1 [Compound 76, 2-(3,4-dichlorophenyl)-5-[4-(difluoromethyl)phenyl]-1-ethyl-6-methyl-4-oxo-pyridine-3-carboxylic acid] | 2 (2=21-40%) | 1 (1=0-20%) | 1 (1=0-20%) | 1 (1=0-20%) | 3 (3=41-60%) | 2 (2=21-40%) | 3 (3=41-60%) | 2 (2=21-40%) | 3 (3=41-60%) | 1 (1=0-20%) | 1 (1=0-20%) | 2 (2=21-40%)
CCn1c(C)c(-c2cc(F)c(OC)c(F)c2)c(=O)c(C(=O)O)c1-c1ccc(Cl)c(Cl)c1 [Compound 84, 2-(3,4-dichlorophenyl)-5-(3,5-difluoro-4-methoxy-phenyl)-1-ethyl-6-methyl-4-oxo-pyridine-3-carboxylic acid] | 3 (3=41-60%) | 1 (1=0-20%) | 1 (1=0-20%) | 1 (1=0-20%) | 4 (4=61-80%) | 3 (3=41-60%) | 3 (3=41-60%) | 1 (1=0-20%) | 3 (3=41-60%) | 2 (2=21-40%) | 1 (1=0-20%) | 3 (3=41-60%)
CCn1c(C)c(-c2cc(OC)cc(OC)c2)c(=O)c(C(=O)O)c1-c1ccc(Cl)c(Cl)c1 [Compound 70, 2-(3,4-dichlorophenyl)-5-(3,5-dimethoxyphenyl)-1-ethyl-6-methyl-4-oxo-pyridine-3-carboxylic acid] | 1 (1=0-20%) | 1 (1=0-20%) | 1 (1=0-20%) | 1 (1=0-20%) | 3 (3=41-60%) | 1 (1=0-20%) | 2 (2=21-40%) | 2 (2=21-40%) | 3 (3=41-60%) | 1 (1=0-20%) | 2 (2=21-40%) | 1 (1=0-20%)
